Data set [1] in a line: Stability of tepotinib in QC plasma samples. Type of data set: in vitro ADME, rat.
The conditions of data set [2]: previous study, humans; cited from earlier work.
For data set [3] the following is noted: tepotinib 50 mg/kg oral, rat plasma, mean ± SD.

Each structure is given as a SMILES string. Like-named read-outs stand apart in the source and are kept apart here.

What is called Tmax is the time at which the peak concentration occurs. In general, AUC(0-t) refers to exposure summed from dosing to a finite time, without extrapolation to infinity. A higher AUC(0-t) goes with more exposure. Usually AUC(0-inf) stands for the area under the concentration-time curve extrapolated to infinity. What is called Cmax is the highest concentration seen after dosing. The MRT last is a mean duration of stay, worked out from the concentration-time curve. Usually MRT inf stands for a mean duration of stay, worked out from the concentration-time curve. What is called half-life is the time in which the quantity being followed falls by half. Lower therefore signals fast loss. In the case of `CN1CCC(COc2cnc(-c3cccc(Cn4nc(-c5cccc(C#N)c5)ccc4=O)c3)nc2)CC1` [tepotinib, Tepotinib], the “stability maintained (long-term stability)” value in data set [1] (-80 ℃ refrigerator) was found to be 4 weeks. Besides, in data set [1] (-80 ℃ to ambient temperature), the “stability maintained over freeze‒thaw cycles” value was determined as 3 freeze‒thaw cycles. The “stability maintained (short-term stability)” value in data set [1] (ambient temperature) worked out at 3 h. Moreover, the “stability maintained in autosampler” value in data set [1] (autosampler (10 ℃)) was 6 h. The Tmax in data set [2] was 9 h; in data set [3] (male, Sprague-Dawley, rat, in vivo, po, 50 mg/kg, Tmax, Group A: control (0.5% CMC-Na)), 8.8 ± 3.03 h. This compound came in with a CLz/F in data set [3] (Group A: control (0.5% CMC-Na)) of 10.88 ± 1.04 L/h. Further, in data set [3] (male, Sprague-Dawley, rat, in vivo, po, 50 mg/kg, AUC0→t, Group A: control (0.5% CMC-Na)), the AUC(0-t) worked out at 4600 ± 458 ng·h/mL. This compound also gave an area under the curve AUC(0-inf) in data set [3] (male, Sprague-Dawley, rat, in vivo, po, 50 mg/kg, AUC0→∞, Group A: control (0.5% CMC-Na)) of 4630 ± 454 ng·h/mL. The highest level in data set [3] (male, Sprague-Dawley, rat, in vivo, po, 50 mg/kg, Cmax, Group A: control (0.5% CMC-Na)) (Cmax) was 180 ± 38.2 ng/mL. Besides, in data set [3] (male, Sprague-Dawley, rat, in vivo, po, 50 mg/kg, MRT0→t, Group A: control (0.5% CMC-Na)), the mean residence time MRT last was 18.9 ± 1.21 h. The mean residence time (MRT inf) in data set [3] (male, Sprague-Dawley, rat, in vivo, po, 50 mg/kg, MRT0→∞, Group A: control (0.5% CMC-Na)) came to 19.4 ± 1.36 h. In data set [3] (male, Sprague-Dawley, rat, in vivo, po, 50 mg/kg, t1/2, Group A: control (0.5% CMC-Na)), the half-life is 9.4 ± 2.35 h.

(Values after PMC11536652 (BMC Chemistry, 2024).)
